Data on 5 compounds can be found in ChEMBL document CHEMBL5137011, “Semisynthetic pleuromutilin antimicrobials with therapeutic potential against methicillin-resistant Staphylococcus aureus by targeting 50S ribosomal subunit” (Eur J Med Chem, 2022).

Series [1] has as its system Staphylococcus aureus. The experiment in a line: Antibacterial activity against Staphylococcus aureus 144 assessed as inhibition of bacterial growth incubated for 16 hrs by CLSI based broth microdilution method. It is filed as functional. For orientation: In broth dilution the organism is exposed to a series of concentrations in liquid medium.
Series [2] deals with Staphylococcus aureus. The experiment in a line: Antibacterial activity against Staphylococcus aureus ATCC 29213 assessed as inhibition of bacterial growth incubated for 16 hrs by CLSI based broth microdilution method. It is filed as functional.
Series [3] concerns Staphylococcus aureus. Nature of the series: Antibacterial activity against methicillin-resistant Staphylococcus aureus ATCC 43300 assessed as inhibition of bacterial growth incubated for 16 hrs by CLSI based broth microdilution method. It is filed as functional.
The test system of series [4] is Staphylococcus aureus. Nature of the series: Antibacterial activity against Staphylococcus aureus SA17 assessed as inhibition of bacterial growth incubated for 16 hrs by CLSI based broth microdilution method. It is filed as functional.
Series [5] deals with RAW264.7. Nature of the series: Cytotoxicity against mouse RAW264.7 cells assessed as reduction in cell viability at 8 ug/ml incubated for 16 hrs by MTT assay. It counts as toxicity, cell-based. As to conditions: raw264.7, 16 h, dose 8 µg/ml.
Series [6] deals with 16HBE14o-. Nature of the series: Cytotoxicity against human 16HBE14o- cells assessed as reduction in cell viability at 8 ug/ml incubated for 16 hrs by MTT assay relative to control. It counts as toxicity, cell-based. The settings on record: at 8 µg/mL.
Series [7] deals with Staphylococcus aureus. The experiment in a line: Antibacterial activity against Staphylococcus aureus AD3 assessed as inhibition of bacterial growth incubated for 16 hrs by CLSI based broth microdilution method. It is filed as functional.
The target of series [8] is Bacterial 70S ribosome. The experiment in a line: Binding affinity to Staphylococcus aureus ATCC 43300 50S ribosomal subunit assessed as equilibrium dissociation constant by surface plasmon resonance analysis. It is filed as subcellular.
Series [9] has as its system Staphylococcus aureus. The experiment in a line: Antibacterial activity against methicillin-resistant Staphylococcus aureus ATCC 43300 infected in ICR/Swiss mouse systemic infection model assessed as survival rate at 30 mg/kg, iv administered as bolus injection 1 hr post infection measured twice daily after 2 to 7 days. It is filed as functional. As to conditions: time 2-7 day.

In series [10] the target is Bacterial 70S ribosome (Bacteria) (UniProt P0A7V0+P60723+P0AG67+P0A7R5+P0A7R9+P0A7S3+P0A7S9+P0AG59+P0ADZ4+P0A7T3+P0AG63+P0A7T7+P0A7U3+P0A7U7+P68679+P0A7V3+P0A7V8+P0A7W1+P02358+P02359+P0A7W7+P0A7X3+P0A7J3+P0A7J7+P0AA10+P0ADY3+P02413+P0ADY7+P0AG44+P0C018+P0A7K6+P0A7L0+P0A7L3+P0AG48+P61175+P0ADZ0+P60624+P68919+P0A7L8+P0A7M2+P0A7M6+P60422+P0AG51+P0A7N1+P0A7M9+P0A7N4+P0A7N9+P0A7P5+P0A7Q1+Q2EEQ2+P0A7Q6+P60438+P62399+P0AG55+P0A7K2). The experiment in a line: Binding affinity to Staphylococcus aureus ATCC 43300 50S ribosomal subunit assessed as association rate constant by surface plasmon resonance analysis. It counts as subcellular. For orientation: In SPR one partner is held on a chip, and binding of the other changes the refractive index at the surface.

For series [11], the system named is Staphylococcus aureus. Nature of the series: Antibacterial activity against methicillin-resistant Staphylococcus aureus ATCC 43300 infected in ICR/Swiss mouse […] thigh infection model assessed as log reduction in bacterial load in thigh at 20 mg/kg, iv administered as bolus injection measured after 24 hrs. It counts as functional.
The subject of series [12] is Staphylococcus aureus. Nature of the series: Antibacterial activity against methicillin-resistant Staphylococcus aureus ATCC 43300 assessed as log reduction in colony forming unit at 4 times MIC measured after 3 hrs by time kill assay. It is filed as functional.
The test system of series [13] is 16HBE14o-. The experiment in a line: Cytotoxicity against human 16HBE14o- cells assessed as reduction in cell viability at 8 ug/ml incubated for 16 hrs by MTT assay. It counts as toxicity, cell-based. The settings on record: dose 8 µg/ml. In general terms: Formazan colour is commonly taken as a measure of viable cells.
Series [14] deals with Staphylococcus aureus. Nature of the series: Antibacterial activity against methicillin-resistant Staphylococcus aureus ATCC 43300 assessed as log reduction in colony forming unit at 4 times MIC measured after 24 hrs by time kill assay. It is filed as functional.
A short description of series [15]: Clearance in mouse at 10 mg/kg, iv administered as bolus infection measured upto 24 hrs by LC-MS analysis. It counts as ADME, organism-based. The settings on record: in vivo.
The nature of series [16]: Clearance in mouse assessed as hepatic blood flow at 10 mg/kg, iv administered as bolus infection measured upto 24 hrs by LC-MS analysis. It counts as ADME, organism-based. The settings on record: in vivo.
For series [17], the system named is Staphylococcus aureus. The experiment in a line: Antibacterial activity against methicillin-resistant Staphylococcus aureus ATCC 43300 infected in ICR/Swiss mouse systemic infection model assessed as survival rate at 30 mg/kg, iv administered as bolus injection 1 hr post infection measured twice daily after 3 to 7 days. It is filed as functional. The settings on record: time 3-7 day.

A short description of series [18]: AUC(0 to infinity) in mouse at 10 mg/kg, iv administered as bolus injection measured upto 24 hrs by LC-MS analysis. It counts as ADME, organism-based. Further details: time < 24 hrs, dose 10 mg/kg, route iv. The settings on record: in vivo.
Series [19] in a line: Half life in mouse at 10 mg/kg, iv administered as bolus infection measured upto 24 hrs by LC-MS analysis. It counts as ADME, organism-based. The settings on record: in vivo.
Series [20] can be described thus: AUC(0 to t) in mouse at 10 mg/kg, iv administered as bolus injection measured upto 24 hrs by LC-MS analysis. It is filed as ADME, organism-based. Further details: dose 10 mg/kg, time < 24 hrs, route iv. The settings on record: in vivo.
Series [21] can be described thus: MRT in mouse at 10 mg/kg, iv administered as bolus infection measured upto 24 hrs by LC-MS analysis. It counts as ADME, organism-based. The settings on record: in vivo.

Broadly, the MIC is the least concentration at which growth counts as inhibited. The Kd is the concentration at which binding is half-saturated. A word on the clearance: it is a measure of how efficiently the substance is removed, as volume per time. One may read the AUC(0-inf) as the area under the concentration-time curve extrapolated to infinity. Low readings indicate low exposure, high ones high exposure. The term AUC(0-t) denotes exposure summed from dosing to a finite time, without extrapolation to infinity. Low readings indicate less exposure, high ones more exposure. The term MRT denotes the average time that molecules of a dose stay in the body.

Values after ≈ are worked out from the molar mass of the structure shown.

For `C=C[C@]1(C)C[C@@H](OC(=O)CSc2nnc(-c3cccc(C(F)(F)F)c3)[nH]2)[C@]2(C)[C@H](C)CC[C@]3(CCC(=O)[C@H]32)[C@@H](C)[C@@H]1O`, the MIC in series [1] was greater than 32 µg/mL; in series [2] it was 2 µg/mL (≈ 3.3 µM); in [3], 1 µg/mL (≈ 1.65 µM); in series [4] it was greater than 32 µg/mL; in series [7] it was 0.25 µg/mL (≈ 0.413 µM). The values for the Activity entry in series [5] and in series [6] were “Non-Toxic” and greater than 50%, respectively.
`C=C[C@]1(C)C[C@@H](OC(=O)CSc2nnc(-c3ccc(C(F)(F)F)cc3)[nH]2)[C@]2(C)[C@H](C)CC[C@]3(CCC(=O)[C@H]32)[C@@H](C)[C@@H]1O`: the MIC in [1] is greater than 32 µg/mL; in series [2], 2 µg/mL (≈ 3.3 µM); in series [3], 0.5 µg/mL (≈ 0.825 µM); in series [4], greater than 32 µg/mL; in series [7] it was 0.25 µg/mL (≈ 0.413 µM). In addition, the Activity result in [5] was “Non-Toxic”; in series [6], greater than 50%.
On to `C=C[C@]1(C)C[C@@H](OC(=O)CSCCN(CC)CC)[C@]2(C)[C@H](C)CC[C@]3(CCC(=O)[C@H]32)[C@@H](C)[C@@H]1O` [TIAMULIN], for which the MIC in [1] was found to be 1 µg/mL (≈ 2.03 µM); in series [2], 0.5 µg/mL (≈ 1.01 µM); in [3], 0.5 µg/mL (≈ 1.01 µM); in series [4], 1 µg/mL (≈ 2.03 µM); in [7] it was 0.5 µg/mL (≈ 1.01 µM). Moreover, the Kd in series [8] amounted to 0.0363 µM. Besides, the survival at 30 mg/kg in series [9] turned out to be 30%. In series [10], the Ka was 1.22 10^2/Ms. The Activity in series [11] is -1.1 log10CFU/ml.
In the case of `C=C[C@]1(C)C[C@@H](OC(=O)CSc2nnc(-c3ccccc3OC)[nH]2)[C@]2(C)[C@H](C)CC[C@]3(CCC(=O)[C@H]32)[C@@H](C)[C@@H]1O`, the MIC amounted to 0.125 µg/mL (≈ 0.22 µM) in series [1]; 0.125 µg/mL (≈ 0.22 µM) in series [2]; 0.0625 µg/mL (≈ 0.11 µM) in [3]; 0.125 µg/mL (≈ 0.22 µM) in [4]; 0.0625 µg/mL (≈ 0.11 µM) in [7]. The Activity was -1.53 log10CFU/ml in series [12]; “Non-Toxic” in [13]; -7.1 log10CFU/ml in series [14]; -1.27 log10CFU/ml in series [11]; “Non-Toxic” in series [5]. Further, in series [8], the Kd was determined as 121 µM. The Ka in series [10] was 4.99 10^2/Ms.
In [15], `C=C[C@]1(C)C[C@@H](OC(=O)CSc2nnc(-c3ccccc3F)[nH]2)[C@]2(C)[C@H](C)CC[C@]3(CCC(=O)[C@H]32)[C@@H](C)[C@@H]1O` had a clearance of 90.5 mL/min/kg. Further, the MIC in series [1] came to 0.25 µg/mL (≈ 0.45 µM); in [2], 0.125 µg/mL (≈ 0.225 µM); in series [3], 0.0625 µg/mL (≈ 0.112 µM); in series [4] it was 0.125 µg/mL (≈ 0.225 µM); in [7], 0.03 µg/mL (≈ 0.054 µM). The Activity in series [12] is on record as -1.66 log10CFU/ml; in [13] it was “Non-Toxic”; in [14], -7.7 log10CFU/ml; in series [11], -1.53 log10CFU/ml; in [5], “Non-Toxic”. In addition, the QH in series [16] was 90 mL/min/kg. Besides, the survival at 30 mg/kg in [17] was 50%. The Kd in [8] was 1.95 µM. Also, in [18], the AUC(0-inf) is 1840 ng·h/mL. Also, in series [19], the t1/2 stood at 22.2 min. Further, the Ka in series [10] is 1.04 10^3/M.s. The compound further returned an AUC(0-t) at 24 h in series [20] of 1830 ng·h/mL. The compound further displayed an MRT in series [21] of 93.6 min.
